{"source": "patent US20230398130A1", "about": "“METHODS AND COMPOSITIONS FOR DIFFERENTIATING STEM CELLS” (Massachusetts Institute of Technology, priority 2020, published 2023)", "key": {"[1]": {"system": "ISC-enriched organoids", "experiment": "Primary screen, 384-well 2.5-D organoid differentiation (ENR+CD, 6 days): basal lysozyme secretion (LYZ.NS)", "format": "cell-based, murine", "conditions": "for Dose.FC.LYZ.NS: FC vs plate median; for Z.LYZ.NS: standard z score of FC; for Dose.FC.LYZ.NS (log 2 fold change, basal lysozyme secretion): vs plate median", "description": "(§1) High-throughput screening."}, "[2]": {"system": "ISC-enriched organoids", "experiment": "Primary screen, 384-well 2.5-D organoid differentiation (ENR+CD, 6 days, Target Selective Inhibitor Library, vs whole-plate median): ATP (CellTiter-Glo 3D, CTG)", "conditions": "for Dose.FC.CTG: FC vs plate median; for Z.CTG: standard z score of FC; for Dose.FC.CTG (log 2 fold change, ATP): vs plate median"}, "[3]": {"system": "ISC-enriched organoids", "experiment": "Primary screen, 384-well 2.5-D organoid differentiation (ENR+CD, 6 days): carbachol-induced lysozyme secretion (LYZ.S)", "format": "cell-based, murine", "conditions": "for Dose.FC.LYZ.S: primary screen, FC vs plate median; for Dose.FC.LYZ.S (log 2 fold change, carbachol-induced lysozyme secretion): vs plate median", "description": "as §1"}, "[4]": {"conditions": "primary screen, dose 0.08 uM, ENR+CD 6 days"}, "[5]": {"conditions": "primary screen, dose 0.40 uM, ENR+CD 6 days"}, "[6]": {"conditions": "primary screen, dose 2.00 uM, ENR+CD 6 days"}, "[7]": {"conditions": "primary screen, dose 10.00 uM, ENR+CD 6 days"}}}
{"smiles": "COc1cc(OC2CCN(C)CC2)ccc1Nc1ncc2c(n1)n(C1CCCC1)c(=O)n2C", "note": "[AZ 3146]", "values": [{"measurement": "Dose.FC.LYZ.NS", "setting": "[1]; [4]", "result": 0.073, "unit": "log 2 fold change"}, {"measurement": "Z.LYZ.NS", "setting": "[1]; primary screen, dose 0.08 uM", "result": 0.639}, {"measurement": "Dose.FC.LYZ.NS", "setting": "[1]; [5]", "result": "−0.038", "unit": "log 2 fold change"}, {"measurement": "Z.LYZ.NS", "setting": "[1]; primary screen, dose 0.40 uM", "result": "−0.327"}, {"measurement": "Dose.FC.LYZ.NS", "setting": "[1]; [6]", "result": "−0.079", "unit": "log 2 fold change"}, {"measurement": "Z.LYZ.NS", "setting": "[1]; primary screen, dose 2.00 uM", "result": "−0.687"}, {"measurement": "Dose.FC.LYZ.NS", "setting": "[1]; [7]", "result": "−0.281", "unit": "log 2 fold change"}, {"measurement": "Z.LYZ.NS", "setting": "[1]; primary screen, dose 10.00 uM", "result": "−2.447"}, {"measurement": "Dose.FC.CTG", "setting": "[2]; [4]", "result": "−0.130", "unit": "log 2 fold change"}, {"measurement": "Z.CTG", "setting": "[2]; primary screen, dose 0.08 uM", "result": "−0.310"}, {"measurement": "Dose.FC.CTG", "setting": "[2]; [5]", "result": "−0.262", "unit": "log 2 fold change"}, {"measurement": "Z.CTG", "setting": "[2]; primary screen, dose 0.40 uM", "result": "−0.626"}, {"measurement": "Dose.FC.CTG", "setting": "[2]; [6]", "result": "−0.369", "unit": "log 2 fold change"}, {"measurement": "Z.CTG", "setting": "[2]; primary screen, dose 2.00 uM", "result": "−0.881"}, {"measurement": "Dose.FC.CTG", "setting": "[2]; [7]", "result": "−1.168", "unit": "log 2 fold change"}, {"measurement": "Z.CTG", "setting": "[2]; primary screen, dose 10.00 uM", "result": "−2.789"}, {"measurement": "Dose.FC.LYZ.S", "setting": "[3]; dose 0.08 uM, ENR+CD 6 days", "result": 0.049, "unit": "log 2 fold change"}, {"measurement": "Dose.FC.LYZ.S", "setting": "[3]; dose 0.40 uM, ENR+CD 6 days", "result": "−0.067", "unit": "log 2 fold change"}, {"measurement": "Dose.FC.LYZ.S", "setting": "[3]; dose 2.00 uM, ENR+CD 6 days", "result": "−0.130", "unit": "log 2 fold change"}, {"measurement": "Dose.FC.LYZ.S", "setting": "[3]; dose 10.00 uM, ENR+CD 6 days", "result": "−0.422", "unit": "log 2 fold change"}]}
{"smiles": "O=C(NCc1ccccc1)c1csc(Nc2ccncn2)n1", "note": "[Thiazovivin]", "values": [{"measurement": "Z.LYZ.NS (standard z score)", "setting": "[1]; dose 0.08 uM", "result": 0.780}, {"measurement": "Dose.FC.LYZ.NS (log 2 fold change, basal lysozyme secretion)", "setting": "[1]; dose 0.08 uM", "result": 0.090}, {"measurement": "Z.LYZ.NS (standard z score)", "setting": "[1]; dose 0.40 uM", "result": 0.611}, {"measurement": "Dose.FC.LYZ.NS (log 2 fold change, basal lysozyme secretion)", "setting": "[1]; dose 0.40 uM", "result": 0.070}, {"measurement": "Z.LYZ.NS (standard z score)", "setting": "[1]; dose 2.00 uM", "result": 0.205}, {"measurement": "Dose.FC.LYZ.NS (log 2 fold change, basal lysozyme secretion)", "setting": "[1]; dose 2.00 uM", "result": 0.024}, {"measurement": "Z.LYZ.NS (standard z score)", "setting": "[1]; dose 10.00 uM", "result": "−0.605"}, {"measurement": "Dose.FC.LYZ.NS (log 2 fold change, basal lysozyme secretion)", "setting": "[1]; dose 10.00 uM", "result": "−0.069"}, {"measurement": "Z.CTG (standard z score)", "setting": "[2]; dose 0.08 uM", "result": 0.337}, {"measurement": "Dose.FC.CTG (log 2 fold change, ATP)", "setting": "[2]; dose 0.08 uM", "result": 0.141}, {"measurement": "Z.CTG (standard z score)", "setting": "[2]; dose 0.40 uM", "result": 0.271}, {"measurement": "Dose.FC.CTG (log 2 fold change, ATP)", "setting": "[2]; dose 0.40 uM", "result": 0.113}, {"measurement": "Z.CTG (standard z score)", "setting": "[2]; dose 2.00 uM", "result": 0.746}, {"measurement": "Dose.FC.CTG (log 2 fold change, ATP)", "setting": "[2]; dose 2.00 uM", "result": 0.312}, {"measurement": "Z.CTG (standard z score)", "setting": "[2]; dose 10.00 uM", "result": 0.451}, {"measurement": "Dose.FC.CTG (log 2 fold change, ATP)", "setting": "[2]; dose 10.00 uM", "result": 0.189}, {"measurement": "Dose.FC.LYZ.S (log 2 fold change, carbachol-induced lysozyme secretion)", "setting": "[3]; dose 0.08 uM", "result": 0.142}, {"measurement": "Dose.FC.LYZ.S (log 2 fold change, carbachol-induced lysozyme secretion)", "setting": "[3]; dose 0.40 uM", "result": 0.060}, {"measurement": "Dose.FC.LYZ.S (log 2 fold change, carbachol-induced lysozyme secretion)", "setting": "[3]; dose 2.00 uM", "result": 0.064}, {"measurement": "Dose.FC.LYZ.S (log 2 fold change, carbachol-induced lysozyme secretion)", "setting": "[3]; dose 10.00 uM", "result": 0.037}]}
{"smiles": "COc1ccccc1S(=O)(=O)Nc1ccc2c(c1)CN(C)C(=O)N2", "note": "[PFI-1 (PF-6405761)]", "values": [{"measurement": "Dose.FC.LYZ.NS", "setting": "[1]; Dose 0.08 uM, primary screen", "result": 0.062, "unit": "log 2 fold change"}, {"measurement": "Z.LYZ.NS", "setting": "[1]; Dose 0.08 uM", "result": 0.538}, {"measurement": "Dose.FC.LYZ.NS", "setting": "[1]; Dose 0.40 uM, primary screen", "result": 0.079, "unit": "log 2 fold change"}, {"measurement": "Z.LYZ.NS", "setting": "[1]; Dose 0.40 uM", "result": 0.691}, {"measurement": "Dose.FC.LYZ.NS", "setting": "[1]; Dose 2.00 uM, primary screen", "result": "−0.098", "unit": "log 2 fold change"}, {"measurement": "Z.LYZ.NS", "setting": "[1]; Dose 2.00 uM", "result": "−0.852"}, {"measurement": "Dose.FC.LYZ.NS", "setting": "[1]; Dose 10.00 uM, primary screen", "result": "−0.066", "unit": "log 2 fold change"}, {"measurement": "Z.LYZ.NS", "setting": "[1]; Dose 10.00 uM", "result": "−0.573"}, {"measurement": "Dose.FC.CTG", "setting": "[2]; Dose 0.08 uM, primary screen", "result": 0.142, "unit": "log 2 fold change"}, {"measurement": "Z.CTG", "setting": "[2]; Dose 0.08 uM", "result": 0.340}, {"measurement": "Dose.FC.CTG", "setting": "[2]; Dose 0.40 uM, primary screen", "result": 0.390, "unit": "log 2 fold change"}, {"measurement": "Z.CTG", "setting": "[2]; Dose 0.40 uM", "result": 0.931}, {"measurement": "Dose.FC.CTG", "setting": "[2]; Dose 2.00 uM, primary screen", "result": 0.322, "unit": "log 2 fold change"}, {"measurement": "Z.CTG", "setting": "[2]; Dose 2.00 uM", "result": 0.770}, {"measurement": "Dose.FC.CTG", "setting": "[2]; Dose 10.00 uM, primary screen", "result": "−0.389", "unit": "log 2 fold change"}, {"measurement": "Z.CTG", "setting": "[2]; Dose 10.00 uM", "result": "−0.929"}, {"measurement": "Dose.FC.LYZ.S", "setting": "[3]; Dose 0.08 uM", "result": 0.061, "unit": "log 2 fold change"}, {"measurement": "Dose.FC.LYZ.S", "setting": "[3]; Dose 0.40 uM", "result": 0.104, "unit": "log 2 fold change"}, {"measurement": "Dose.FC.LYZ.S", "setting": "[3]; Dose 2.00 uM", "result": "−0.117", "unit": "log 2 fold change"}, {"measurement": "Dose.FC.LYZ.S", "setting": "[3]; Dose 10.00 uM", "result": "−0.194", "unit": "log 2 fold change"}]}
